A word on the melting point: it is the temperature, or range, at which the solid turns liquid. `CCS(=O)(=O)c1ccc(CC(=O)O)cc1` came in with a melting point of 53 to 55 °C.

In the case of `COC(=O)Cc1c(C)n[nH]c1C`, the melting point lay within 51 to 55 °C.

In turn, `COc1ccc2[nH]c3c(c2c1)CCCC3` showed a melting point of 59 to 61 °C.

Molecule `O=C(O)CN1C(=O)NC2(CCCC2)C1=O` returned a melting point of 165 to 167 °C.

The molecule `O=C(O)c1cccc(S(=O)(=O)N2CCc3sccc3C2)c1` registered a melting point of 207 to 209 °C.

For the molecule `O=C1COc2ncc(Br)cc2N1`, the melting point lay within 256 to 258 °C.

In turn, `CC(=O)Nc1ccc(C)cc1N` gave a melting point of 132 to 134 °C.

The molecule `O=C(O)c1cc2ccc(F)cc2[nH]1` displayed a melting point of 227 to 229 °C.

Turning to `CNS(=O)(=O)CC(=O)O`, the melting point was 119 to 121 °C.

Turning to `O=C1CCN(C(=O)C2CC2)CC1`, the melting point fell in the range of 72 to 74 °C.

Molecule `NC(=O)c1sccc1-c1ccccc1` had a melting point of 114 to 116 °C.

As for `COc1cccc(-c2nc(CC(=O)O)cs2)c1OC`, the melting point lay in the range of 156 to 158 °C.

`O=C(O)c1ccc(Oc2cccc(F)c2[N+](=O)[O-])c(Cl)c1`: the melting point fell in the range of 169 to 171 °C.

`CC(C)c1nc(C(=O)O)cs1` had a melting point of 56 to 58 °C.

`CC1(c2ccc3c(c2)OCCCO3)NC(=O)NC1=O` (centres undefined): the melting point fell in the range of 192 to 194 °C.

`COC(=O)CCc1nnc(N)s1`: the melting point fell in the range of 135 to 137 °C.

As for `O=S1(=O)Cc2ccc(Cl)cc2N1`, the melting point lay within 149 to 151 °C.

For the molecule `NCCNS(=O)(=O)Cc1ccccc1`, the melting point lay within 88 to 90 °C.

`CCCCNC(=O)CC(N)=NO` returned a melting point of 95 to 99 °C.

`Cc1ccc(-c2ccc(C=O)s2)cc1` yielded a melting point of 87 to 89 °C.

With `Nc1nc(-c2ccccc2)no1`, the melting point lay in the range of 149 to 151 °C.

`Cc1nn(C)c(C)c1S(N)(=O)=O` displayed a melting point of 213 to 215 °C.

As to `ClCc1nnnn1CC1CC1`, the melting point fell in the range of 30 to 32 °C.

As for `O=C(O)c1ccc(Cl)c(Cl)c1O`, the melting point was 212 to 214 °C.

Molecule `CC(C)C(Cl)C(=O)O` (centres undefined) registered a melting point of 33 to 35 °C.

Molecule `Cc1nc(-c2ccc(Cl)s2)sc1C(=O)O` returned a melting point of 255 to 257 °C.

As to `N#Cc1ccc(C(F)(F)F)nc1Cl`, the melting point lay in the range of 38 to 40 °C.

For the molecule `CNC(=O)c1cnc(C)s1`, the melting point lay in the range of 172 to 174 °C.

The molecule `Cc1ccc(-c2nnn(CC(=O)O)n2)cc1` showed a melting point of 188 to 190 °C.

Regarding `CC(=O)N(c1cccc(C)c1)c1nc(CCl)cs1`, the melting point lay within 117 to 119 °C.

The molecule `Clc1ccc2c(c1)NCCCS2` displayed a melting point of 51 to 53 °C.

`CC1(C)CCc2c(sc(N)c2C(N)=O)C1` showed a melting point of 144 to 146 °C.

The molecule `COc1ccc(-c2ccc(C=O)o2)c([N+](=O)[O-])c1` came in with a melting point of 107 to 109 °C.

The molecule `O=C(O)c1ccc2c(c1)CC(c1ccccc1)OC2=O` (centres undefined) gave a melting point of 310 to 312 °C.

Take `Cc1cc(C)c(N)c(Cl)n1`: the melting point fell in the range of 56 to 58 °C.

Consider `O=C1CCC(C(=O)O)CN1` (centres undefined), for which the melting point lay within 174 to 176 °C.

As for `CCOc1cc(C=O)ccc1OCc1cccnc1`, the melting point lay within 73 to 75 °C.

For `COc1ccc(NC(=O)c2ccccc2N)c(OC)c1`, the melting point lay in the range of 154 to 156 °C.

In turn, `OC1CNc2c(ccc3ccccc23)C1` (centres undefined) gave a melting point of 144 to 146 °C.

`O=C(CCl)Nc1cccc(S(=O)(=O)N2CCOCC2)c1` displayed a melting point of 157 to 159 °C.

The molecule `Nc1ccc2oc(=O)[nH]c2c1` registered a melting point of 204 to 206 °C.

`CNc1sccc1C#N` came in with a melting point of 71 to 73 °C.

In the case of `NC(=O)c1ccc(S(N)(=O)=O)c(N)c1`, the melting point lay in the range of 202 to 204 °C.

Molecule `Sc1nnc(C2CC2)n1C1CC1` displayed a melting point of 138 to 140 °C.

Take `CSCc1nc(N)ccc1Cl`: the melting point lay within 70 to 72 °C.

Consider `COc1ccc(C=C[N+](=O)[O-])cc1Cl`, for which the melting point fell in the range of 95 to 97 °C.

For `Nc1ccn(Cc2cccnc2)n1`, the melting point was in the range of 88 to 90 °C.

In turn, `O=C(O)c1ccccc1N1CCOCC1` showed a melting point of 58 to 60 °C.

In turn, `COc1cc(C(C)=O)ccc1S(=O)(=O)C(F)F` yielded a melting point of 134 to 136 °C.

For `O=C(O)CCc1cc2ccccc2o1`, the melting point is 110 to 112 °C.

Consider `O=C(O)C1CCN(S(=O)(=O)c2cccnc2)CC1`, for which the melting point was in the range of 237 to 239 °C.

Consider `CC(C)CC(C)(N)C(N)=O` (centres undefined), for which the melting point was 71 to 73 °C.

In the case of `O=C1OC(C=Cc2ccccc2)=NC1=Cc1cccnc1`, the melting point was in the range of 165 to 167 °C.

Take `O=C(c1ccccc1)c1ccc(Br)cc1F`: the melting point lay within 76 to 78 °C.

For `O=c1c(Oc2ccccc2)coc2cc(O)ccc12`, the melting point is 197 to 199 °C.

`CCNC(=O)NCc1ccc(N)cc1` registered a melting point of 120 to 122 °C.

`Clc1ccc2oc(C3CCNCC3)nc2c1` returned a melting point of 86 to 88 °C.

Regarding `CCOc1ccc(C2CCCN2)cc1` (centres undefined), the melting point is less than 17 °C.

`CN(C)c1ccnc(N)n1`: the melting point lay within 157 to 159 °C.

`Cn1ccnc1-c1ccc([N+](=O)[O-])cc1` returned a melting point of 107 to 109 °C.

`COCCn1c(C)c(C)c2cc(C(=O)O)ccc21` registered a melting point of 219 to 221 °C.

In the case of `CCc1nc(COc2ccc(C(=O)OC)cc2)no1`, the melting point lay within 44 to 46 °C.

The molecule `Sc1nnc(-c2ccncc2)n1Cc1ccccc1` returned a melting point of 195 to 197 °C.

Molecule `CS(=O)(=O)c1ccc(C(=O)O)o1` came in with a melting point of 173 to 175 °C.

Molecule `CCOC(=O)c1cc(Br)cc(S(N)(=O)=O)c1` registered a melting point of 119 to 121 °C.

In turn, `Cc1nc(-c2cccc(Br)c2)ccc1C(=O)O` registered a melting point of 181 to 183 °C.

As to `Cc1cc([N+](=O)[O-])c(Cl)cc1F`, the melting point is 43 to 45 °C.

`NC(=O)Cc1ccccc1Cl` had a melting point of 178 to 180 °C.

With `O=C(O)c1cc(-c2ccncc2)on1`, the melting point is 276 to 278 °C.

As for `NC(CCN1CCCCC1)=NO`, the melting point was 137 to 139 °C.

`NC(=O)c1c[nH]c(C(=O)O)c1` registered a melting point of 264 to 266 °C.

In turn, `CCn1cc(S(N)(=O)=O)nc1C` had a melting point of 179 to 181 °C.

Regarding `CNc1ccc(S(C)(=O)=O)cc1`, the melting point fell in the range of 126 to 128 °C.

Turning to `Nc1ccc2oc(CO)nc2c1`, the melting point lay in the range of 113 to 115 °C.

`Cn1nnc2ccc(C(=O)O)cc21`: the melting point was in the range of 271 to 273 °C.

Consider `CCn1cc(C(=O)O)c(C(C)C)n1`, for which the melting point lay in the range of 122 to 124 °C.

`N#Cc1cc(-c2ccccc2)sc1N` had a melting point of 190 to 192 °C.

For the molecule `Cn1cc(C(=O)NN)cn1`, the melting point lay in the range of 179 to 181 °C.

As for `NS(=O)(=O)c1cnc2c(c1)CCC2`, the melting point was in the range of 188 to 190 °C.

For `COc1cccc(CNC(=O)C(C)Cl)c1` (centres undefined), the melting point is 89 to 91 °C.

Molecule `CCc1cccc(CC)c1Nc1nnc(S)s1` registered a melting point of 165 to 167 °C.

The molecule `N#Cc1ccc(SCCC(=O)O)cc1` had a melting point of 86 to 88 °C.

Regarding `NS(=O)(=O)c1ccc(CNCC(F)(F)F)cc1`, the melting point was 129 to 131 °C.

`COc1cc(C=O)cc(O)c1O` had a melting point of 131 to 134 °C.

`Cc1ccnc(N)c1N` displayed a melting point of 111 to 113 °C.

As for `COc1cc(OC)c2ncc(C(=O)O)c(O)c2c1`, the melting point lay within 299 to 301 °C.

As to `CC(C)CN1CCC(C(=O)O)CC1`, the melting point was 75 to 77 °C.

`COc1ccc(-c2csc(NC(=O)C(C)Cl)n2)cc1` (centres undefined) gave a melting point of 124 to 126 °C.

The molecule `O=C1C=CC(=O)N1CCc1ccccc1` came in with a melting point of 109 to 111 °C.

In turn, `CN(C)C(=O)COc1ccccc1C=O` came in with a melting point of 89 to 91 °C.

For `O=C1N(Cc2ccccc2)CCN1S(=O)(=O)Cl`, the melting point lay within 112 to 114 °C.

Molecule `CC(O)c1cc[nH]n1` (centres undefined) had a melting point of 58 to 60 °C.

The molecule `Cc1ccc(-c2nn(-c3ccccc3)cc2/C=C/C(=O)O)o1` gave a melting point of 238 to 240 °C.

As to `Nc1ccc(-n2nccn2)nc1`, the melting point lay within 82 to 84 °C.

As for `CC(C1CC1)n1ncc2c(C(=O)O)cc(C3CC3)nc21` (centres undefined), the melting point was 148 to 150 °C.

`Nc1c(F)cccc1C(=O)O` displayed a melting point of 182 to 186 °C.

Molecule `Cc1ccc(F)c(-n2nnnc2CCl)c1` gave a melting point of 51 to 53 °C.

Molecule `COc1cc(C#N)ccc1OC(F)F` yielded a melting point of 47 to 51 °C.

With `C=CCn1c(S)nc2ccccc21`, the melting point was 109 to 111 °C.

On to `Nc1ccc(C(=O)N2CCCc3ccccc32)cc1`, for which the melting point fell in the range of 210 to 212 °C.

The molecule `N#CCN(C(=O)c1ccccc1)C1CC1` showed a melting point of 103 to 105 °C.

With `O=C(O)c1ccc(Cn2cc(Cl)cn2)o1`, the melting point fell in the range of 117 to 119 °C.

For the molecule `CC(C)(C)NS(=O)(=O)c1ccc(NN)nc1`, the melting point was 124 to 126 °C.

Molecule `Nc1ncn(Cc2ccc(Br)cc2)n1` gave a melting point of 169 to 171 °C.

Take `COc1ccc(-c2ccc(C#N)cc2)cc1`: the melting point fell in the range of 102 to 104 °C.

For `Cc1ccccc1CNC(=O)C(C)Cl` (centres undefined), the melting point was in the range of 108 to 110 °C.

For `Cn1c(=O)n(C)c2cc(S(N)(=O)=O)c(Br)cc21`, the melting point fell in the range of 314 to 316 °C.

Molecule `Cc1nc(N)sc1Cl` came in with a melting point of 100 to 102 °C.

`O=C1NC(=O)C2(CN3CCC2CC3)N1` (centres undefined) displayed a melting point of 298 to 300 °C.

The molecule `C#CCn1c(C)nc2ccccc21` registered a melting point of 67 to 69 °C.

In the case of `COC(=O)C(C#N)c1nc2ccccc2nc1Cl` (centres undefined), the melting point was 197 to 199 °C.

`O=Cc1sc(Cl)nc1Cl` registered a melting point of 38 to 42 °C.

`N#Cc1cc2ccccc2o1` had a melting point of 33 to 35 °C.

The molecule `Cc1ccc(C)c2[nH]c(C(=O)O)cc12` had a melting point of 206 to 208 °C.

The molecule `Cc1ccc(S(=O)(=O)N2CCC(N)CC2)cc1` yielded a melting point of 105 to 109 °C.

As to `Cc1cc(C(=O)O)cc(S(=O)(=O)Cl)c1Cl`, the melting point was 209 to 211 °C.

`N#Cc1ccc(Oc2cccc([N+](=O)[O-])c2)cc1`: the melting point lay in the range of 124 to 126 °C.

`Cc1c(Cl)cc(S(=O)(=O)Cl)cc1[N+](=O)[O-]` registered a melting point of 60 to 62 °C.

On to `Cc1ccc(C(=O)Cc2ccccc2)cc1C`, for which the melting point was in the range of 93 to 95 °C.

On to `CS(=O)(=O)Nc1cc(F)ccc1N`, for which the melting point lay within 121 to 123 °C.

`O=S(=O)(Cl)c1ccc(OCC(F)F)cc1` returned a melting point of 42 to 44 °C.

For the molecule `COc1cc(N)c(C(=O)O)c(Br)c1`, the melting point lay within 134 to 136 °C.

Molecule `Nc1nc(CN2CCN(c3ccc(F)cc3)CC2)cs1` registered a melting point of 194 to 196 °C.

On to `CS(=O)(=O)Nc1ccc(S(=O)(=O)Cl)cc1`, for which the melting point lay in the range of 141 to 143 °C.

Source of the values: a melting point compilation (Tetko et al.).
